Results on 12 compounds are retold here after PubChem BioAssay (NCI).

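These data come from cells grown in 96-well plates and exposed to compound for 48 hours at five concentrations. The concentration for full growth arrest is given as TGI.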 *1 amine or outer side, *2 acyl side, *3 side chain or, on linkers, in order; H or OH if unused. Where a SMILES comes first, the peptide text is derived from it. Bridges are numbered along the chain shown (N, C = ends). [ ]: non-standard residue; d: D form. The star is where a group is joined. X34 = O=C(C(CCCCNO[*:3])N[*:1])[*:2]; Fmoc = O=C(OCC1c2ccccc2-c2ccccc21)* A value given as a limit tells only on which side of the number the result lay.

Some test systems named below: 786-0 renal; HCC-2998 colon; HS 578T breast; IGROV1 ovarian; KM12 colon; M14 melanoma; NCI-H23 lung; OVCAR-5 ovarian; OVCAR-8 ovarian; RXF 393 renal; SF-295 CNS; SK-MEL-5 melanoma; SNB-19 CNS; SW-620 colon; TK-10 renal; UACC-257 melanoma; UACC-62 melanoma.
What all share (test): inhibition of tumour cell growth, NCI panel, 48 h

`C#Cc1cc(Br)c(OC(=O)C(C)(C)C)c(-c2cc(C#C)cc(Br)c2OC(=O)C(C)(C)C)c1`: the TGI in the test with 786-0 renal was above 100 µM; in the test with HCC-2998 colon it was 90.7 µM; in the test on HS 578T breast it was above 100 µM; in the test on IGROV1 ovarian it was above 100 µM; in the test with KM12 colon, above 100 µM; with M14 melanoma, above 100 µM. Moreover, the TGI was above 100 µM in the test with NCI-H23 lung; 66 µM with OVCAR-5 ovarian; above 100 µM in the test with OVCAR-8 ovarian; 46.7 µM with RXF 393 renal; above 100 µM in the test with SF-295 CNS; above 100 µM in the test on SK-MEL-5 melanoma. Further, the TGI in the test with SNB-19 CNS, with SW-620 colon, in the test on TK-10 renal, in the test with UACC-257 melanoma and in the test on UACC-62 melanoma was above 100 µM in each case.
For the compound `CSc1nc2c(c(N3CCOCC3)n1)C(O)n1c(nc3ccccc31)S2` (centres undefined), the TGI is above 100 µM with 786-0 renal; above 100 µM with HCC-2998 colon; 92.7 µM in the test on HS 578T breast; above 100 µM in the test with IGROV1 ovarian; above 100 µM with KM12 colon; above 100 µM in the test on M14 melanoma. The TGI was above 100 µM with NCI-H23 lung; above 100 µM in the test with OVCAR-5 ovarian; above 100 µM in the test with OVCAR-8 ovarian; above 100 µM with RXF 393 renal; above 100 µM with SF-295 CNS; 8.41 µM with SK-MEL-5 melanoma. Also, the TGI in the test on SNB-19 CNS, in the test with SW-620 colon, in the test with TK-10 renal, with UACC-257 melanoma and in the test with UACC-62 melanoma was above 100 µM throughout.
Take `COC(=O)[C@H]1COC(=O)N1`: the TGI in the test with 786-0 renal, in the test with HCC-2998 colon, in the test with HS 578T breast, with IGROV1 ovarian, in the test with KM12 colon and in the test with M14 melanoma was above 100 µM in each case. For the same compound, the TGI with NCI-H23 lung, in the test on OVCAR-5 ovarian, in the test on OVCAR-8 ovarian, with RXF 393 renal, in the test with SF-295 CNS and with SK-MEL-5 melanoma was above 100 µM throughout. Besides, the TGI in the test on SNB-19 CNS, in the test with SW-620 colon, with TK-10 renal, with UACC-257 melanoma and in the test with UACC-62 melanoma was above 100 µM in each case.
For the compound `NC(=O)CNC(=O)C1CCCN1C(=O)C1CCCCNOC(=O)CCC(NC(=O)OCC2c3ccccc3-c3ccccc32)C(=O)NC(Cc2c[nH]c3ccccc23)C(=O)N1` (centres undefined) (Fmoc-EW[X34]PG-NH2; ester 1-3; configuration not given here), the TGI in the test on 786-0 renal, in the test with HCC-2998 colon, with HS 578T breast, with IGROV1 ovarian, in the test with KM12 colon and in the test with M14 melanoma was above 100 µM each time. In addition, the TGI with NCI-H23 lung, in the test with OVCAR-5 ovarian, with OVCAR-8 ovarian, in the test on RXF 393 renal, in the test with SF-295 CNS and in the test on SK-MEL-5 melanoma was above 100 µM in each case. The TGI with SNB-19 CNS, with SW-620 colon, in the test with TK-10 renal, in the test on UACC-257 melanoma and in the test on UACC-62 melanoma was above 100 µM in each case.
`O=c1[nH]c(=O)n(C2CC(O)C(CO)O2)c2nc3ccc4cc5ccccc5cc4c3nc12` (centres undefined): the TGI with 786-0 renal, in the test on HCC-2998 colon, in the test on HS 578T breast, in the test with IGROV1 ovarian, in the test on KM12 colon and with M14 melanoma was above 100 µM each time. Further, the TGI in the test with NCI-H23 lung, with OVCAR-5 ovarian, in the test with OVCAR-8 ovarian, with RXF 393 renal, in the test on SF-295 CNS and in the test on SK-MEL-5 melanoma was above 100 µM in each case. The TGI with SNB-19 CNS, in the test with SW-620 colon, in the test on TK-10 renal, with UACC-257 melanoma and with UACC-62 melanoma was above 100 µM throughout.
As for `COc1cc(/C=C\c2nnc(/C=C\c3ccc(O)c(OC)c3)s2)ccc1O`, the TGI in the test with 786-0 renal is above 100 µM; with HCC-2998 colon, 12.9 µM; in the test with HS 578T breast, above 37.8 µM; in the test on IGROV1 ovarian it was above 36.6 µM; with KM12 colon, 15.4 µM; with M14 melanoma, 9.58 µM. Moreover, the TGI with NCI-H23 lung is 12.2 µM; with OVCAR-5 ovarian, 48.8 µM; in the test on OVCAR-8 ovarian, above 42.9 µM; in the test on RXF 393 renal, 4.75 µM; in the test on SF-295 CNS, 13.5 µM; in the test on SK-MEL-5 melanoma, 3.42 µM. Besides, the TGI in the test with SNB-19 CNS is above 82.1 µM; in the test with SW-620 colon, above 23.7 µM; with TK-10 renal it was above 51.2 µM; in the test with UACC-257 melanoma, above 30.7 µM; with UACC-62 melanoma, 18.8 µM.
With `O=C1OC(C2(O)OC(=O)c3ccccc32)c2ccccc21` (centres undefined), the TGI in the test with 786-0 renal, with HCC-2998 colon, in the test on HS 578T breast, with IGROV1 ovarian, in the test on KM12 colon and in the test on M14 melanoma was above 100 µM each time. The TGI with NCI-H23 lung, in the test with OVCAR-5 ovarian, in the test with OVCAR-8 ovarian, in the test on RXF 393 renal, with SF-295 CNS and in the test on SK-MEL-5 melanoma was above 100 µM in each case. Further, the TGI in the test with SNB-19 CNS, in the test with SW-620 colon, in the test on TK-10 renal, in the test on UACC-257 melanoma and in the test on UACC-62 melanoma was above 100 µM throughout.
`NC(=O)SCCC(N)C(=O)O` (centres undefined): the TGI in the test with 786-0 renal, in the test on HCC-2998 colon, in the test with HS 578T breast, in the test on IGROV1 ovarian, with KM12 colon and with M14 melanoma was above 100 µM throughout. The TGI in the test with NCI-H23 lung, in the test with OVCAR-5 ovarian, in the test with OVCAR-8 ovarian, with RXF 393 renal, in the test with SF-295 CNS and in the test with SK-MEL-5 melanoma was above 100 µM each time. In addition, the TGI in the test on SNB-19 CNS, in the test with SW-620 colon, in the test with TK-10 renal, in the test on UACC-257 melanoma and with UACC-62 melanoma was above 100 µM each time.
On to `COc1cc2c(cc1OC)C(=O)C1(C2)[C@H](c2ccccc2)C2C(=O)c3cc(OC)c(OC)cc3C2[C@H]1c1ccccc1` (some centres undefined), for which the TGI with 786-0 renal, in the test on HCC-2998 colon, in the test on HS 578T breast, in the test with IGROV1 ovarian, in the test on KM12 colon and in the test with M14 melanoma was above 100 µM in each case. For the same compound, the TGI in the test on NCI-H23 lung, with OVCAR-5 ovarian, in the test on OVCAR-8 ovarian, with RXF 393 renal, with SF-295 CNS and in the test with SK-MEL-5 melanoma was above 100 µM in each case. The TGI in the test on SNB-19 CNS, in the test on SW-620 colon, in the test on TK-10 renal, with UACC-257 melanoma and in the test on UACC-62 melanoma was above 100 µM throughout.
On to `CC(C)Oc1cccc(N2C(=NCCc3c[nH]c4ccccc34)Nc3ccncc3S2(=O)=O)c1`, for which the TGI was 5.35 µM with 786-0 renal; above 100 µM in the test on HCC-2998 colon; above 100 µM with HS 578T breast; above 100 µM in the test on IGROV1 ovarian; above 100 µM in the test on KM12 colon; above 100 µM in the test on M14 melanoma. In addition, the TGI is above 100 µM with NCI-H23 lung; above 100 µM with OVCAR-5 ovarian; above 100 µM with OVCAR-8 ovarian; 44.9 µM in the test with RXF 393 renal; above 100 µM in the test with SF-295 CNS; above 100 µM in the test on SK-MEL-5 melanoma. The TGI in the test with SNB-19 CNS, in the test on SW-620 colon, with TK-10 renal, in the test with UACC-257 melanoma and in the test with UACC-62 melanoma was above 100 µM in each case.
Regarding `CCN(CCCl)c1cc(CN(C)C)cc(NC(=O)C23CCC(C(=O)Nc4cc(CN(C)C)cc(N(CC)CCCl)c4)(CC2)CC3)c1`, the TGI is 1 µM with 786-0 renal; 2.73 µM in the test on HCC-2998 colon; 2.53 µM with HS 578T breast; 3.28 µM with IGROV1 ovarian; 3.17 µM with KM12 colon; 14.8 µM in the test on M14 melanoma. For the same compound, the TGI stood at 4.71 µM in the test with NCI-H23 lung; 10.4 µM in the test with OVCAR-5 ovarian; 3.16 µM with OVCAR-8 ovarian; 3.18 µM with RXF 393 renal; 11.9 µM with SF-295 CNS; 3.33 µM in the test with SK-MEL-5 melanoma. Besides, the TGI with SNB-19 CNS was determined as 3.3 µM; with SW-620 colon, 1.65 µM; in the test with TK-10 renal, 21.2 µM; with UACC-257 melanoma it was 15.5 µM; in the test with UACC-62 melanoma it was 4.18 µM.
For `CC1(c2ccc(Cl)s2)CC(c2ccc(Cl)s2)=C(C#N)C(=C(C#N)C#N)N1` (centres undefined), the TGI in the test with 786-0 renal worked out at 40.6 µM; in the test with HCC-2998 colon it was 34.5 µM; with HS 578T breast, 61.6 µM; with IGROV1 ovarian it was 35.3 µM; in the test with KM12 colon, 36 µM; in the test on M14 melanoma, 36.4 µM. Moreover, the TGI in the test on NCI-H23 lung worked out at 42.2 µM; in the test with OVCAR-5 ovarian, 35.8 µM; in the test on OVCAR-8 ovarian, 50.4 µM; in the test on RXF 393 renal, 33.7 µM; in the test on SF-295 CNS, 29.8 µM; in the test with SK-MEL-5 melanoma it was 29.5 µM. Besides, the TGI with SNB-19 CNS is 44.2 µM; in the test on SW-620 colon, 52.4 µM; with TK-10 renal it was 38.1 µM; in the test on UACC-257 melanoma, 43.4 µM; with UACC-62 melanoma, 30.7 µM.
